Laboratory results reported in paper PMC6131557, “Selective Cytotoxicity of Dihydroorotate Dehydrogenase Inhibitors to Human Cancer Cells Under Hypoxia and Nutrient-Deprived Conditions” (Frontiers in Pharmacology, 2018).
Like-named read-outs stand apart in the source and are kept apart here.

How the values were obtained:
[1] = target: T1, human dihydroorotate dehydrogenase (HsDHODH) (Homo sapiens, UniProt Q02127); assay: Inhibition of recombinant human DHODH enzyme activity; format: biochemical; conditions: for IC50: recombinant human DHODH; for inhibition at 1 µM: at 1,000 nM, read-out: Inhibition of HsDHODH activity (value in parentheses); for fold increase in the IC50 in comparison to 3: HsDHODH IC50 versus compound 3
T1 construct: made in house
T1 sequence (Q02127 whole entry): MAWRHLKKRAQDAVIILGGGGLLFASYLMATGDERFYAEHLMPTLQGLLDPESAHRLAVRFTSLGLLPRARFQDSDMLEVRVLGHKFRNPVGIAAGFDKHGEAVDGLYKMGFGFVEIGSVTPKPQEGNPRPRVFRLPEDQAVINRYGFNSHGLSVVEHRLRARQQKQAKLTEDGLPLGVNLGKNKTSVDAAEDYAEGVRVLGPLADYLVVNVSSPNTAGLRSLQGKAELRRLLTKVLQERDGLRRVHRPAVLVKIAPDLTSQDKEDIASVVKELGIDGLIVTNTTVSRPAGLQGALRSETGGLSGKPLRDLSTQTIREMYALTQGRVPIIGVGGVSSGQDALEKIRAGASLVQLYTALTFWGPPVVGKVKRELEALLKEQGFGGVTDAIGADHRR

Complex I = assay: NADH dehydrogenase (complex I) activity, bovine mitochondria; format: biochemical; conditions: at 5 μM
Method: (§1) Recombinant human DHODH was purified, crystallized, and assayed as previously described ([Inaoka et al., 2016]) without modification. Bovine mitochondrial fractions were prepared as previously described ([Kita et al., 1988]) and NADH dehydrogenase (complex I), succinate:quinone reductase (complex II), quinol oxidase (complexes III–IV), NADH-cytochrome c reductase (complexes I–III), and succinate-cytochrome c (complexes II–III) activities were assayed following an established method ([Takamiya et al., 1986]; [Miyadera et al., 2001]; [Matsumoto et al., 2008]; [Kido et al., 2010]; [Nihashi et al., 2017]).

Complexes I–III = assay: NADH-cytochrome c reductase (complexes I–III) activity, bovine mitochondria; format: biochemical
Method: as §1

Complex II = target: T2, Complex II (Bos taurus, UniProt P35720+Q3T189+Q95123); assay: Succinate:quinone reductase (complex II) activity, bovine mitochondria; format: biochemical
T2 construct: from tissue; host or cells: bovine mitochondrial fraction / sub-mitochondrial particles
T2 sequence (P31039 45-665 partner limits assumed): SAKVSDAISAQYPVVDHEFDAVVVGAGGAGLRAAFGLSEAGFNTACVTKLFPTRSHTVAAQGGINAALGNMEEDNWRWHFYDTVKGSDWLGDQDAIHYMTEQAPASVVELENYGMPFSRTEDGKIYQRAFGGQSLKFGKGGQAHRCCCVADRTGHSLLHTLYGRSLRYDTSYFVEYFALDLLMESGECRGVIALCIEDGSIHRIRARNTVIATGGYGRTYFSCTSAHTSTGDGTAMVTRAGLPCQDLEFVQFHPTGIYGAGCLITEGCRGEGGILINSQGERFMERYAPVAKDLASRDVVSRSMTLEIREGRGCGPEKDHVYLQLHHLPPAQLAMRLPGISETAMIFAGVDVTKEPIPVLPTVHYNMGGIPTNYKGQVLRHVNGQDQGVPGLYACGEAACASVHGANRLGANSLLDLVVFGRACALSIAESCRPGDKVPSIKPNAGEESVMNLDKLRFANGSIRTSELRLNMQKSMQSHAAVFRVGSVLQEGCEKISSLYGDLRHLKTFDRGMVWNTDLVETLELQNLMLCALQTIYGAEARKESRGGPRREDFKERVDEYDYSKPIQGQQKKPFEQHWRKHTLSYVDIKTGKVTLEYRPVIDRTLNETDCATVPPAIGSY
T2 sequence (Q3T189 29-280): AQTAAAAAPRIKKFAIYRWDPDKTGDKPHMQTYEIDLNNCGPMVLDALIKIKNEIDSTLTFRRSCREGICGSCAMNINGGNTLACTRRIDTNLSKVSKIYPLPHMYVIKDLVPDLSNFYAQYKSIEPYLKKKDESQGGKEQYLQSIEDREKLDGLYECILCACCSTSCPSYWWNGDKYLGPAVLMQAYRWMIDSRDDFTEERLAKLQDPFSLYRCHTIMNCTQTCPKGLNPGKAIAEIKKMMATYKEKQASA
T2 sequence (P35720 30-169): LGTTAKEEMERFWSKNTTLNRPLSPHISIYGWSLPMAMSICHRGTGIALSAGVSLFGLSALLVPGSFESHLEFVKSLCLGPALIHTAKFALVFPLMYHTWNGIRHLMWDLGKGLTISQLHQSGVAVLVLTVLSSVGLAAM
T2 sequence (Q95123 56-158): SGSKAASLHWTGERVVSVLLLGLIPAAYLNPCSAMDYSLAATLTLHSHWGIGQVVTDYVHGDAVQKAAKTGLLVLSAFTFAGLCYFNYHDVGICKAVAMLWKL

Complex II–III = assay: Succinate-cytochrome c reductase (complexes II–III) activity, bovine mitochondria; format: biochemical
Method: as §1

Complex III = target: T3, Complex III (Bos taurus, UniProt P00157); assay: Quinol oxidase (complex III) activity, bovine mitochondria; format: biochemical; conditions: ubiquinol oxidase activity
T3 construct: from tissue; host or cells: bovine mitochondrial fraction / sub-mitochondrial particles

OVCAR-5 = assay: 39-cancer cell panel assay: OVCAR-5; format: cell-based; conditions: Homo sapiens, Ov
KM-12 = assay: 39-cancer cell panel assay: KM-12; format: cell-based, human; conditions: Co
ACHN = assay: 39-cancer cell panel assay: ACHN; format: cell-based; conditions: Homo sapiens, Re
MDA-MB-231 = assay: 39-cancer cell panel assay: MDA-MB-231; format: cell-based; conditions: Homo sapiens, Br
LOX-IMVI = assay: 39-cancer cell panel assay: LOX-IMVI; format: cell-based; conditions: Homo sapiens, Me
SF-539 = assay: 39-cancer cell panel assay: SF-539; format: cell-based; conditions: Homo sapiens, CNS
HT-29 = assay: 39-cancer cell panel assay: HT-29; format: cell-based; conditions: Homo sapiens, Co
NCI-H226 = assay: 39-cancer cell panel assay: NCI-H226; format: cell-based; conditions: Homo sapiens, Lu
MKN7 = assay: 39-cancer cell panel assay: MKN7; format: cell-based; conditions: Homo sapiens, MKN-7, St
DMS114 = assay: 39-cancer cell panel assay: DMS114; format: cell-based; conditions: Homo sapiens, DMS-114, Lu
MCF-7 = assay: 39-cancer cell panel assay: MCF-7; format: cell-based; conditions: Homo sapiens, MCF7, Br
MKN74 = assay: 39-cancer cell panel assay: MKN74; format: cell-based; conditions: Homo sapiens, MKN-74, St
BSY-1 = assay: 39-cancer cell panel assay: BSY-1; format: cell-based; conditions: Homo sapiens, Br
MKN28 = assay: 39-cancer cell panel assay: MKN28; format: cell-based; conditions: Homo sapiens, MKN-28, St
OVCAR-3 = assay: 39-cancer cell panel assay: OVCAR-3; format: cell-based; conditions: Homo sapiens, Ov
SNB-78 = assay: 39-cancer cell panel assay: SNB-78; format: cell-based; conditions: Homo sapiens, CNS
HCC2998 = assay: 39-cancer cell panel assay: HCC2998; format: cell-based; conditions: Homo sapiens, HCC 2998, Co
SNB-75 = assay: 39-cancer cell panel assay: SNB-75; format: cell-based; conditions: Homo sapiens, CNS
OVCAR-8 = assay: 39-cancer cell panel assay: OVCAR-8; format: cell-based; conditions: Homo sapiens, Ov
SF-268 = assay: 39-cancer cell panel assay: SF-268; format: cell-based; conditions: Homo sapiens, CNS
SF-295 = assay: 39-cancer cell panel assay: SF-295; format: cell-based; conditions: Homo sapiens, CNS
HBC-4 = assay: 39-cancer cell panel assay: HBC-4; format: cell-based; conditions: Homo sapiens, HBC4, Br
PC-3 = assay: 39-cancer cell panel assay: PC-3; format: cell-based; conditions: Homo sapiens, Pro
NCI-H23 = assay: 39-cancer cell panel assay: NCI-H23; format: cell-based; conditions: Homo sapiens, Lu
St-4 = assay: 39-cancer cell panel assay: St-4; format: cell-based; conditions: Homo sapiens
MKN1 = assay: 39-cancer cell panel assay: MKN1; format: cell-based; conditions: Homo sapiens, MKN-1, St
SK-OV-3 = assay: 39-cancer cell panel assay: SK-OV-3; format: cell-based; conditions: Homo sapiens
U251 = assay: 39-cancer cell panel assay: U251; format: cell-based; conditions: Homo sapiens, U-251, CNS
HCT-116 = assay: 39-cancer cell panel assay: HCT-116; format: cell-based; conditions: Homo sapiens, Co
RXF-631L = assay: 39-cancer cell panel assay: RXF-631L; format: cell-based; conditions: Homo sapiens, Re
DMS273 = assay: 39-cancer cell panel assay: DMS273; format: cell-based; conditions: Homo sapiens, DMS-273, Lu
DU-145 = assay: 39-cancer cell panel assay: DU-145; format: cell-based; conditions: Homo sapiens, Pro
HCT-15 = assay: 39-cancer cell panel assay: HCT-15; format: cell-based; conditions: Homo sapiens, Co
OVCAR-4 = assay: 39-cancer cell panel assay: OVCAR-4; format: cell-based; conditions: Homo sapiens, Ov
HBC-5 = assay: 39-cancer cell panel assay: HBC-5; format: cell-based; conditions: Homo sapiens, HBC5, Br
NCI-H460 = assay: 39-cancer cell panel assay: NCI-H460; format: cell-based; conditions: Homo sapiens, Lu
NCI-H522 = assay: 39-cancer cell panel assay: NCI-H522; format: cell-based; conditions: Homo sapiens, Lu
A549 = assay: 39-cancer cell panel assay: A549; format: cell-based; conditions: Homo sapiens, Lu
MKN45 = assay: 39-cancer cell panel assay: MKN45; format: cell-based; conditions: Homo sapiens, MKN-45, St
DLD-1 cells = assay: Cytotoxicity assay (Cell Counting Kit-8 / WST-8) on DLD-1 cells; format: cell-based, human; conditions: at higher concentrations (100 μM); Supplementary Figure S7
Method: For hypoxia and nutrient-deprived culture conditions, cells were incubated under 1% oxygen in glucose and glutamine-free DMEM (Gibco) without FBS.
DLD-1 or HDF cells were seeded at 2.5 × 10^4 cells/well on a 96-well plate with normal medium, and cultured overnight under normal culture condition. The cells were washed with PBS and the medium was replaced to either normal medium or glucose and glutamine-free DMEM without FBS. Test compounds or DMSO as a control were added to the wells. The cells in normal medium were cultured under normal culture conditions, while cells in nutrient-deprived medium were cultured under hypoxia condition. After 24 or 48 h incubation, the cells were washed with PBS, 100 μl of fresh normal medium, and 10 μl of Cell Counting Kit-8 solution (Donjindo, Japan) was added to each well. After 3 h incubation under normal culture condition, the absorbance was measured at 450 nm using SpectraMax M2e-TUY microplate reader (Molecular Devices). Cell viability of test wells was calculated based on absorbance of control wells containing DMSO according to manufacturer’s protocol.

[2] = purified enzyme fixed at 10 nM, read-out: IC50 (nM), inhibition of human DHODH

C/C(=C\Cc1c(O)c(Cl)c(C)c(C=O)c1O)CC/C=C(\C)C1CC(=O)C(C)(C)O1 (racemic) [Compound 2, racemic-AF]
IC50 [1, 2]: 97.4 ± 7.3 nM

COc1[nH]c(=O)c(C(=O)[C@@H](C)C[C@H](C)[C@@H](Cl)CCl)c(O)c1OC [Atpenin A5, reference compound]
Inhibition (%) Complex I (Complex I): 10 ± 2.7%
IC50 (Complexes I–III): 2.8 ± 0.44 µM
inhibition at 5 µM (Complex II): 97 ± 1%
IC50 ([1]; IC50 (μM) HsDHODH, Table 6): > 10000 nM
IC50 (Complex II–III): 0.0063 ± 0.0002 µM
inhibition at 5 µM (Complex III): 0%

CC(C)=CCC/C(C)=C/Cc1c(O)c(Cl)c(C)c(C=O)c1O [Compound 3, colletochlorin B]
IC50 [1, 2]: 74.1 ± 22 nM

C/C(=C\COC(=O)C(C)(C)C)CC/C(C)=C/Cc1c(O)c(Cl)c(C)c(C=O)c1O [Compound 11]
IC50 [1, 2]: 67.2 ± 2.8 nM

C/C(=C\COC(=O)C(C)C)CC/C(C)=C/Cc1c(O)c(Cl)c(C)c(C=O)c1O [Compound 12]
GI50 (OVCAR-5): 22 µM
GI50 (μM) KM-12 (KM-12): 10.0 µM
GI50 (ACHN): 16 µM
GI50 (MDA-MB-231): 10 µM
GI50 (LOX-IMVI): 3.4 µM
GI50 (SF-539): 2.2 µM
GI50 (HT-29): 5.8 µM
GI50 (NCI-H226): 8 µM
GI50 (MKN7): 16 µM
GI50 (DMS114): 12 µM
GI50 (MCF-7): 6.7 µM
GI50 (MKN74): 11 µM
GI50 (BSY-1): 16 µM
GI50 (MKN28): 13 µM
GI50 (OVCAR-3): 7.1 µM
GI50 (SNB-78): 28 µM
GI50 (HCC2998): 16 µM
GI50 (SNB-75): 28 µM
GI50 (OVCAR-8): 9.4 µM
GI50 (SF-268): 9.5 µM
GI50 (SF-295): 16 µM
GI50 (HBC-4): 9.4 µM
GI50 (PC-3): 13 µM
GI50 (NCI-H23): 13 µM
GI50 (St-4): 17 µM
GI50 (MKN1): 12 µM
GI50 (SK-OV-3): 49 µM
GI50 (U251): 4.9 µM
GI50 (HCT-116): 4.6 µM
GI50 (RXF-631L): 16 µM
GI50 (DMS273): 3.6 µM
GI50 (DU-145): 23 µM
GI50 (HCT-15): 1.9 µM
GI50 (OVCAR-4): 19 µM
GI50 (HBC-5): 18 µM
GI50 (NCI-H460): 4.5 µM
GI50 (NCI-H522): 4.2 µM
GI50 (A549): 7.1 µM
GI50 (MKN45): 24 µM

C/C(=C\CC/C=C/Cc1c(O)c(Cl)c(C)c(C=O)c1O)COC(=O)C(C)(C)C [Compound 13]
fold decrease (IC50 compared to 4) ([1]; HsDHODH IC50 versus compound 4): about 3.5 fold
IC50 [1, 2]: 349 ± 96 nM

Cc1c(Cl)c(O)c(CCC(C)CCCC(C)COC(=O)C(C)(C)C)c(O)c1C=O (centres unmarked) [Compound 14]
HsDHODH inhibition activity (in words) [1]: abolished
inhibition at 1 µM [1]: 35%
IC50 [1, 2]: > 1000 nM

Cc1c(Cl)c(O)c(CCC(C)CCCCOC(=O)C(C)(C)C)c(O)c1C=O (centres unmarked) [Compound 16]
inhibition at 1 µM [1]: 21%
IC50 [1, 2]: > 1000 nM

CCCCC/C(C)=C/Cc1c(O)c(Cl)c(C)c(C=O)c1O [Compound 17]
IC50 [1, 2]: 71.4 ± 2.4 nM

CCCCCC(C)CCc1c(O)c(Cl)c(C)c(C=O)c1O (centres unmarked) [Compound 18]
inhibition at 1 µM [1]: 37%
IC50 [1, 2]: > 1000 nM

CC(=O)c1c(C)c(Cl)c(O)c(C/C=C(\C)CC/C=C(\C)C2CC(=O)C(C)(C)O2)c1O (centres unmarked) [Compound 19]
HsDHODH inhibition activity (in words) [1]: lost
inhibition at 1 µM [1]: 3%
IC50 [1, 2]: > 1000 nM

C/C(=C\Cc1c(O)c(Cl)c(C)c(CO)c1O)CC/C=C(\C)COC(=O)C(C)(C)C [Compound 20]
IC50 [1, 2]: 3530 nM

COc1c(Cl)c(C)c(C=O)c(O)c1C/C=C(\C)CC/C=C(\C)[C@@H]1CC(=O)C(C)(C)O1 [Compound 21]
inhibition at 1 µM [1]: 3%
IC50 [1, 2]: > 1000 nM

CC(C)=CCC/C(C)=C/Cc1c(O)cc(C)c(C=O)c1O [Compound 22, Colletorin B]
fold increase in the IC50 in comparison to 3 [1]: > 13 fold
inhibition at 1 µM [1]: 20%
IC50 [1, 2]: > 1000 nM

CC(C)=CCC/C(C)=C/Cc1c(O)c(Cl)cc(C=O)c1O [Compound 24]
fold increase in the IC50 in comparison to 3 [1]: > 13 fold
inhibition at 1 µM [1]: 36%
IC50 [1, 2]: > 1000 nM

C/C(O)=C(\C#N)C(=O)Nc1ccc(C(F)(F)F)cc1 [Compound A771726, teriflunomide, reference compound]
effect on DLD-1 under hypoxia/nutrient-deprived conditions (in words) (DLD-1 cells): specific inhibition under hypoxia/nutrient-deprived condition was observed

C=C(C)[C@H]1Cc2c(ccc3c2O[C@@H]2COc4cc(OC)c(OC)cc4[C@@H]2C3=O)O1 [Rotenone, reference compound]
Inhibition (%) Complex I (Complex I): 94 ± 1.5%
IC50 (Complexes I–III): 0.0063 ± 0.0001 µM
inhibition at 5 µM (Complex II): 6.4 ± 7.9%
IC50 ([1]; IC50 (μM) HsDHODH, Table 6): > 10000 nM
IC50 (Complex II–III): > 10 µM
inhibition at 5 µM (Complex III): 1.1 ± 2.8%
